Here are results for eleven compounds from ChEMBL document CHEMBL1201862, “PubChem BioAssay data set” (2004).

Among the test systems are SF-295; IGROV-1; 786-0; PC-3; A549; UACC-62; MDA-N; HL-60; SN12C; Hs-578T; SF-539; HCT-116; SK-MEL-5; OVCAR-3; OVCAR-8; CCRF-CEM; NCI/ADR-RES; UACC-257; CAKI-1; HOP-92.
What all share (test): NCI anticancer screen, dose series, 48 h

The structures appear in SMILES notation.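 Compound exposure: 48 hours, 5 concentrations, 96-well plates. Here, GI50 denotes the concentration required for 50% inhibition of growth.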 The source made the active and inactive calls. No stated cut-off is given here; in the data, active = GI50 up to about 1.1 µM and inactive = higher.

`[N-]=[N+]=C(C(=O)CN1CCCC1=O)S(=O)(=O)c1ccccc1`: the GI50 with SF-295, in the assay with IGROV-1, in the assay on 786-0, in the assay with PC-3, with A549 and with UACC-62 was > 100 µM (inactive) throughout. The GI50 in the assay on MDA-N, in the assay with HL-60, in the assay with SN12C, with Hs-578T, in the assay with SF-539 and in the assay on HCT-116 was > 100 µM (inactive) in each case. Also, the GI50 in the assay with SK-MEL-5, in the assay on OVCAR-3, with OVCAR-8, with CCRF-CEM, with NCI/ADR-RES and with UACC-257 was > 100 µM (inactive) throughout.

Regarding `NC(=O)/N=C1\NCCC(=O)N1CCc1c[nH]c2ccccc12`, the GI50 in the assay with SF-295 was 41.2 µM (inactive); in the assay on IGROV-1, 21.2 µM (inactive); in the assay on 786-0 it was 24 µM (inactive); with PC-3, 11.9 µM (inactive); in the assay on CAKI-1, 0.426 µM (active); in the assay on A549 it was 18.9 µM (inactive). The GI50 in the assay with UACC-62 was 18.2 µM (inactive); in the assay with MDA-N, 19.9 µM (inactive); in the assay on HL-60, 19.2 µM (inactive); in the assay with SN12C it was 21.9 µM (inactive); with Hs-578T it was 20.5 µM (inactive); with SF-539, 15.6 µM (inactive). Besides, the GI50 is 12.4 µM (inactive) in the assay with HCT-116; 18.7 µM (inactive) with SK-MEL-5; 16 µM (inactive) in the assay with OVCAR-3; 17.9 µM (inactive) in the assay on OVCAR-8; 14.4 µM (inactive) in the assay on CCRF-CEM; 17.2 µM (inactive) in the assay with NCI/ADR-RES. Moreover, in the assay on UACC-257, the GI50 is 18.5 µM (inactive).

In the case of `CC1CCCc2c(C#N)c(N)nc(-c3ccc(Cl)cc3)c21` (stereo not drawn), the GI50 with SF-295 was 18.3 µM (inactive); with IGROV-1, 14.4 µM (inactive); in the assay with 786-0, 15.1 µM (inactive); in the assay with PC-3, 4.68 µM (inactive); in the assay on CAKI-1, 68.7 µM (inactive); with UACC-62, 15.8 µM (inactive). The GI50 is 31 µM (inactive) with MDA-N; 18.1 µM (inactive) in the assay on HL-60; 20.3 µM (inactive) in the assay with SN12C; 32.4 µM (inactive) in the assay with Hs-578T; 14.5 µM (inactive) in the assay on SF-539; 20.7 µM (inactive) in the assay with HCT-116. For the same compound, the GI50 in the assay with SK-MEL-5 is 9.38 µM (inactive); in the assay with OVCAR-3, 12.6 µM (inactive); with OVCAR-8, 31 µM (inactive); in the assay on CCRF-CEM it was 22.8 µM (inactive); in the assay with NCI/ADR-RES it was 20.6 µM (inactive); in the assay with UACC-257 it was 25.4 µM (inactive).

With `Cn1c2ccccc2c(=O)c2cccc(C(=O)NC(CCCNC(=N)N)C(=O)O)c21` (stereo not drawn), the GI50 with SF-295 was > 100 µM (inactive); in the assay on IGROV-1, 30.1 µM (inactive); in the assay on 786-0 it was > 100 µM (inactive); in the assay with PC-3 it was > 100 µM (inactive); with A549, > 100 µM (inactive); with UACC-62 it was > 100 µM (inactive). For the same compound, the GI50 with MDA-N, in the assay with SN12C, in the assay with Hs-578T, in the assay on SF-539, in the assay on HCT-116 and with SK-MEL-5 was > 100 µM (inactive) each time. For the same compound, the GI50 in the assay on OVCAR-3 was > 100 µM (inactive); in the assay on OVCAR-8 it was > 100 µM (inactive); with NCI/ADR-RES, 26.1 µM (inactive); with UACC-257, > 100 µM (inactive).

As to `CC(=O)OC1C(O)C(C)OC(OC2C(OC(=O)C3CCC4C(C3)OC3(CC(OC(=O)/C=C/c5ccccc5)C(C)CO3)C43CO3)OC(C)C(O)C2OC(C)=O)C1O` (stereo not drawn), the GI50 with SF-295 is 0.0262 µM (active); in the assay on IGROV-1, 0.0134 µM (active); with 786-0, 0.0132 µM (active); with PC-3, 0.00513 µM (active); in the assay with HOP-92, 0.00581 µM (active); with CAKI-1, 0.285 µM (active). Further, the GI50 was 0.0557 µM (active) in the assay with A549; 0.0108 µM (active) in the assay on UACC-62; 0.00269 µM (active) in the assay on MDA-N; 0.00507 µM (active) in the assay on HL-60; 0.0203 µM (active) in the assay on SN12C; 0.00124 µM (active) with Hs-578T. In addition, the GI50 with SF-539 is 0.00736 µM (active); in the assay on HCT-116, 0.00661 µM (active); in the assay on SK-MEL-5, 0.00418 µM (active); in the assay on OVCAR-3 it was 0.0115 µM (active); with OVCAR-8, 0.0352 µM (active); in the assay on CCRF-CEM, 0.00351 µM (active). The GI50 in the assay on UACC-257 was 0.0205 µM (active).

With `CN(C)N1C(=O)CC2(CCN(CCCC(=O)c3ccc(F)cc3)CC2)C1=O`, the GI50 with SF-295, with IGROV-1, in the assay on 786-0, in the assay on PC-3, in the assay with CAKI-1 and with A549 was > 100 µM (inactive) in each case. In addition, the GI50 with UACC-62, in the assay on MDA-N, with HL-60, with SN12C, in the assay on Hs-578T and with SF-539 was > 100 µM (inactive) throughout. Further, the GI50 with HCT-116, in the assay on SK-MEL-5, in the assay with OVCAR-3, with OVCAR-8, in the assay with NCI/ADR-RES and with UACC-257 was > 100 µM (inactive) in each case.

For the compound `C[C@@]1(Br)C[C@@](C)(Cl)[C@@H](Br)CC1/C=C/Cl` (stereo partly drawn), the GI50 in the assay on SF-295 was 14.4 µM (inactive); with IGROV-1, 8.15 µM (inactive); with 786-0, 16.6 µM (inactive); with PC-3 it was 15.9 µM (inactive); in the assay with A549, 17.7 µM (inactive); in the assay with UACC-62, > 10 µM (inactive). Moreover, the GI50 with MDA-N is 15.8 µM (inactive); with SN12C it was 15 µM (inactive); in the assay with Hs-578T it was 16.7 µM (inactive); in the assay on SF-539 it was 15.2 µM (inactive); with HCT-116, 11 µM (inactive); with SK-MEL-5 it was 13.6 µM (inactive). Also, the GI50 with OVCAR-3 was 15.1 µM (inactive); in the assay with OVCAR-8, 16 µM (inactive); with CCRF-CEM it was 11.1 µM (inactive); with NCI/ADR-RES it was 13.1 µM (inactive); in the assay with UACC-257, 17.9 µM (inactive).

For `OCCN(C1=NCCN1)/[N+](=C\c1ccccn1)[CH-]c1ccccn1`, the GI50 with SF-295, in the assay with IGROV-1, with 786-0, with PC-3, in the assay on CAKI-1 and in the assay with A549 was > 100 µM (inactive) in each case. Moreover, the GI50 in the assay with UACC-62, in the assay with MDA-N, in the assay on HL-60, in the assay on SN12C, in the assay on Hs-578T and with SF-539 was > 100 µM (inactive) in each case. Moreover, the GI50 with HCT-116, with SK-MEL-5, with OVCAR-3, in the assay on OVCAR-8, with CCRF-CEM and in the assay on NCI/ADR-RES was > 100 µM (inactive) in each case. Moreover, in the assay with UACC-257, the GI50 was > 100 µM (inactive).

Regarding `O=C1/C(=C/c2ccc(O)c([N+](=O)[O-])c2)CCC/C1=C\c1ccc(O)c([N+](=O)[O-])c1`, the GI50 in the assay on SF-295 was 18.4 µM (inactive); in the assay on IGROV-1 it was 8.93 µM (inactive); in the assay with 786-0 it was 11.5 µM (inactive); in the assay with PC-3, 13.3 µM (inactive); in the assay with CAKI-1, 11.5 µM (inactive); in the assay with A549, 11.7 µM (inactive). The GI50 is 7.23 µM (inactive) in the assay on UACC-62; 7.57 µM (inactive) with MDA-N; 14.6 µM (inactive) in the assay with HL-60; 11.4 µM (inactive) in the assay with SN12C; 4.48 µM (inactive) in the assay on Hs-578T; 19.3 µM (inactive) in the assay with SF-539. The GI50 in the assay with HCT-116 was 8.45 µM (inactive); with SK-MEL-5 it was 9.27 µM (inactive); in the assay on OVCAR-3, 8.36 µM (inactive); in the assay on OVCAR-8, 18.5 µM (inactive); in the assay with CCRF-CEM, 30 µM (inactive); with NCI/ADR-RES, 19.2 µM (inactive). In addition, in the assay with UACC-257, the GI50 is 10.5 µM (inactive).

For the compound `CSC1=N/C(=C\c2cccs2)C(=O)N1CN1CCCCC1`, the GI50 in the assay on SF-295 is > 100 µM (inactive); with IGROV-1, 33.5 µM (inactive); with 786-0 it was 65.6 µM (inactive); in the assay on PC-3 it was > 100 µM (inactive); with HOP-92, 28.2 µM (inactive); with A549 it was > 100 µM (inactive). Besides, the GI50 in the assay with UACC-62 was 93.3 µM (inactive); in the assay with MDA-N it was > 100 µM (inactive); in the assay on SN12C it was > 100 µM (inactive); in the assay with Hs-578T, 18.3 µM (inactive); in the assay on HCT-116 it was 52.5 µM (inactive); in the assay with SK-MEL-5, 66.8 µM (inactive). For the same compound, the GI50 with OVCAR-3 was > 100 µM (inactive); with OVCAR-8, 51.3 µM (inactive); in the assay with CCRF-CEM it was 18.7 µM (inactive); in the assay on NCI/ADR-RES, 50.9 µM (inactive).

With `Cc1c2ccccc2c(C)n2c1nc1cc(Cl)c(Cl)cc12`, the GI50 in the assay on SF-295 is 8.65 µM (inactive); with IGROV-1, > 10 µM (inactive); in the assay with 786-0, 6.47 µM (inactive); in the assay on PC-3, > 10 µM (inactive); with CAKI-1, > 10 µM (inactive); in the assay on A549, > 10 µM (inactive). For the same compound, the GI50 in the assay on UACC-62 was > 10 µM (inactive); in the assay with MDA-N, > 10 µM (inactive); in the assay on HL-60, 3.88 µM (inactive); in the assay on SN12C, > 10 µM (inactive); in the assay with Hs-578T, > 10 µM (inactive); with SF-539, > 10 µM (inactive). The GI50 was > 10 µM (inactive) in the assay with HCT-116; > 10 µM (inactive) in the assay with SK-MEL-5; 0.163 µM (active) in the assay on OVCAR-3; > 10 µM (inactive) in the assay on OVCAR-8; > 10 µM (inactive) in the assay with CCRF-CEM; 0.172 µM (active) with NCI/ADR-RES. In addition, the GI50 in the assay with UACC-257 is > 10 µM (inactive).
